The test system of assay [1] is Vero. The experiment in a line: viability of Vero cells under compound – cytotoxicity control for flavivirus capping enzyme inhibitors (AID 588742). The format is functional. As to conditions: Chlorocebus sabaeus.
In assay [2] the target is T1, SUMO-activating enzyme (Homo sapiens, UniProt Q9UBT2). The experiment in a line: blockers of UBC9-mediated SUMO conjugation – biochemical, AlphaScreen, SUMOylation inhibitor project, confirmation (AID 2018). The format is functional.
T1 sequence (Q9UBE0 whole entry): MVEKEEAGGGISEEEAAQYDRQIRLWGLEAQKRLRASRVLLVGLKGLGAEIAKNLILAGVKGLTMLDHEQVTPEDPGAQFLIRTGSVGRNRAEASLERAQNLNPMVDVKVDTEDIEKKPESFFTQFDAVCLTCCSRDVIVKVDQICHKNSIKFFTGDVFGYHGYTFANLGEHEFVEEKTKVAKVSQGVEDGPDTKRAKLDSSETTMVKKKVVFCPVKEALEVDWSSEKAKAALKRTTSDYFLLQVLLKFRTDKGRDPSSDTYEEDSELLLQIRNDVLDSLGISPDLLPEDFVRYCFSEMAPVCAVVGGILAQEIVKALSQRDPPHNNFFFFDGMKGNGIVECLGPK
T1 sequence (Q9UBT2 whole entry): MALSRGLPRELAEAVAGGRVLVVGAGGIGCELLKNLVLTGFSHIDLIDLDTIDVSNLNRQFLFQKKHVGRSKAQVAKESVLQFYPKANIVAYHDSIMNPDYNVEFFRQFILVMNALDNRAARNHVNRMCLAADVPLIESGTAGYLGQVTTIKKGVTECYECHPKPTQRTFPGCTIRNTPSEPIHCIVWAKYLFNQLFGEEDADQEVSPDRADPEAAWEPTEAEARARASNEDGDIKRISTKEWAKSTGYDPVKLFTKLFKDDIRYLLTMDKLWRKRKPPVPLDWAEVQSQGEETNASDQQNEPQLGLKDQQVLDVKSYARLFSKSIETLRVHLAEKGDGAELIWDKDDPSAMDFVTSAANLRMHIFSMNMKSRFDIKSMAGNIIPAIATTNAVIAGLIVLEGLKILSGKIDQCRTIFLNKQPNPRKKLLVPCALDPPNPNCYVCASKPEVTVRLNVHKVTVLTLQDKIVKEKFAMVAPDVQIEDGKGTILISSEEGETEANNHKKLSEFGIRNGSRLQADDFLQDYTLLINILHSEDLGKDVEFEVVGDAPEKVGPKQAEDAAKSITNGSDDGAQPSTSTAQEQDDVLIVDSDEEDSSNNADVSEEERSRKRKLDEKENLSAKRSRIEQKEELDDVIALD
Assay [3] has as its target T2, Protein RecA (Mycobacterium tuberculosis, UniProt P9WHJ3).
T2 sequence (P9WHJ3 whole entry): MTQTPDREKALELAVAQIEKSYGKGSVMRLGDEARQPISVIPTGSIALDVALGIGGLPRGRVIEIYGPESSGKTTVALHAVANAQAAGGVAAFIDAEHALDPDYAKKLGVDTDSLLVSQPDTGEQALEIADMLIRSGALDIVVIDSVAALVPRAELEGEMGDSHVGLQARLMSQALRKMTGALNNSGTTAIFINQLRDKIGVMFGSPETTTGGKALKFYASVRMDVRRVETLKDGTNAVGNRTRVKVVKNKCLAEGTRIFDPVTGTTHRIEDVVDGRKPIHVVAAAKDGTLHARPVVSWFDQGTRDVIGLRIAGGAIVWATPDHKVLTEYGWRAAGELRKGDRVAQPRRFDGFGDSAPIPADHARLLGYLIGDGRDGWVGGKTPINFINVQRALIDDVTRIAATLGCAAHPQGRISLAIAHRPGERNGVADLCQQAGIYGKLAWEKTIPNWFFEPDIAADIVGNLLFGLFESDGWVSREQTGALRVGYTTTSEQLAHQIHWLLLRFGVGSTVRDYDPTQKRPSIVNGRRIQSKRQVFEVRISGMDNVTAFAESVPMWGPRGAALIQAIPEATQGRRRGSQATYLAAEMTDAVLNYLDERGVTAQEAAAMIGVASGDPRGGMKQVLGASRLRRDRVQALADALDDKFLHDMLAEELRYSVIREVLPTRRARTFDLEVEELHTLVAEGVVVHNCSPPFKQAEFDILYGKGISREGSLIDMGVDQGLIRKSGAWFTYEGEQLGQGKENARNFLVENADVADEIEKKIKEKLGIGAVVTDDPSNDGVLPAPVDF
As to the kind of experiment: Fluorescence Cell-Free Homogeneous Dose Retest to Identify Inhibitors of RecA-Intein Splicing Activity. [Related pubchem assays (depositor defined):AID2097, AID2223, AID489010, AID492950]. The format is functional.

Assay [4] concerns the target T1, SUMO-activating enzyme. The experiment in a line: blockers of SAE1/SAE2–UBC9 SUMO transfer – biochemical, HTRF, uHTS, primary screen (AID 2006). The format is protein-complex assay.
A short description of assay [5]: Trypanosoma cruzi growth suppression in host cells – NIH3T3 host cells, beta-gal luminescence, confirmation (AID 2044).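 Further: intracellular parasites grown in NIH/3T3 mouse fibroblasts as host cells; luminescent beta-galactosidase reporter signal from transgenic T. cruzi replicating inside host cells; inhibitors lower the luminescence signal.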 The format is functional, cell-based.
The target of assay [6] is T3, Replicative DNA helicase DnaB (Mycobacterium tuberculosis, UniProt P9WMR3).
T3 sequence (P9WMR3 whole entry): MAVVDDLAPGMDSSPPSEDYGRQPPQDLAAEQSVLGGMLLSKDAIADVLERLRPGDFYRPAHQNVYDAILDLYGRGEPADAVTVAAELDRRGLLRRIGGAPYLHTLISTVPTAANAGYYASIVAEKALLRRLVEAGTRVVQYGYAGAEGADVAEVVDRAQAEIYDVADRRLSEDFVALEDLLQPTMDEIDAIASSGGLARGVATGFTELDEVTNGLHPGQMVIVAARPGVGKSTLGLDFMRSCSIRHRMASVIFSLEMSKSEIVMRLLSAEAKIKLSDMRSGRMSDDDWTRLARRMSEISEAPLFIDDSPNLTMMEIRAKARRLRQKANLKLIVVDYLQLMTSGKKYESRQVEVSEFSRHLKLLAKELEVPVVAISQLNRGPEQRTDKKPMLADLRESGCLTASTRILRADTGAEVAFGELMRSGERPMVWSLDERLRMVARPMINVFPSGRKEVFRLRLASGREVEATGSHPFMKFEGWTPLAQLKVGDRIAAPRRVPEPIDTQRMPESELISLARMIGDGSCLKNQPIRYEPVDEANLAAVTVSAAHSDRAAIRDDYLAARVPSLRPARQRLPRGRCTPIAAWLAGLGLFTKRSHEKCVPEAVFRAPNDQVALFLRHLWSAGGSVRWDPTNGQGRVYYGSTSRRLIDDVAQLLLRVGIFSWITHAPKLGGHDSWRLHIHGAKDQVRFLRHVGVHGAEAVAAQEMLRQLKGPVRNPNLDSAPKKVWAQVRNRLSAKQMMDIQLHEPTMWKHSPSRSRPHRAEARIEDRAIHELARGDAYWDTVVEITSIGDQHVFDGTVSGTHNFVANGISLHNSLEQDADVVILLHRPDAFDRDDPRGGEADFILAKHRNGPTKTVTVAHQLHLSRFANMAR
The experiment in a line: DnaB intein splicing inhibitors, dose response, biochemical, cell-free fluorescence (AID 449749). The format is functional.

The nature of assay [7]: NIH3T3 cell viability loss – ATP luminescence, mouse fibroblasts, counter-screen, dose response (AID 2010).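 Further: cells exposed to compound for about 90 hours before reading.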 The format is functional, cell-based. (A counterscreen serves to expose hits that act by an unwanted route or on another target.)
The subject of assay [8] is HEK293. The experiment in a line: cells. The format is functional, cell-based. As to conditions: Homo sapiens.
Assay [9] has as its target Nucleotide-binding oligomerization domain-containing protein 1 (Homo sapiens, UniProt Q9Y239). The experiment in a line: blockers of NOD1 pathway activity – revised, SAR follow-up (AID 2333). The format is functional.
For assay [10], the system named is HEK293. The experiment in a line: inhibition of NOD1-driven NF-kB reporter – cell-based, luminescence, uHTS, primary screen (AID 1578). The format is functional. As to conditions: Homo sapiens.
In assay [11] the target is Tumor necrosis factor (Homo sapiens, UniProt P01375). The experiment in a line: analog potency on TNFa NF-kB signaling – cell-based, revised, SAR follow-up (AID 2337). The format is functional.
Tumor necrosis factor, sequence (P01375 whole entry): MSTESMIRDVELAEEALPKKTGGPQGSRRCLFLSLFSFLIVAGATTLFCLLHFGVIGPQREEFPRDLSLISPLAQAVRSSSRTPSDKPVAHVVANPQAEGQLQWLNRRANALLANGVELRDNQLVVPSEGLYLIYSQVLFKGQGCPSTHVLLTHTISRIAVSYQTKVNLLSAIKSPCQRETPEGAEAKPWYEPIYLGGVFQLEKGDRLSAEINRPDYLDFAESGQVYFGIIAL
Assay [12] has as its system HEK293. As to the kind of experiment: cells. As to conditions: Homo sapiens.
Assay [13] relates to HEK293. The experiment in a line: cells. The format is functional, cell-based. The following applies: Homo sapiens. This is another data set of the same source.
Assay [14] deals with HEK293. As to the kind of experiment: NOD2 signaling inhibitors in MDP-stimulated cells, cell-based, uHTS, luminescence (AID 2001). As to conditions: Homo sapiens. The format is functional.
Assay [15] addresses T4, Polyadenylate-binding protein 1 (Homo sapiens, UniProt P11940). The experiment in a line: SAR analysis for the identification of translation initiation inhibitors (PABP) via an Electrophoretic Mobility Shift Dose Response Assay. [Related pubchem assays (depositor defined):AID2012, AID2014, AID2030]. The format is functional. On the technique in general: A gel shift assay detects complexes by their altered migration in electrophoresis.

Assay [16] concerns the target Eukaryotic translation initiation factor 4H (Homo sapiens, UniProt Q15056). As to the kind of experiment: inhibitors of translation initiation factor eIF4H – SAR follow-up (AID 435011). The format is functional.
The target in assay [17] is FAD-linked sulfhydryl oxidase ALR (Homo sapiens, UniProt P55789). The experiment in a line: ALR-catalysed DTT oxidation blockers – biochemical, H2O2 detection, luminescence, cherry-pick, dose response (AID 493248).
FAD-linked sulfhydryl oxidase ALR, sequence (P55789 whole entry): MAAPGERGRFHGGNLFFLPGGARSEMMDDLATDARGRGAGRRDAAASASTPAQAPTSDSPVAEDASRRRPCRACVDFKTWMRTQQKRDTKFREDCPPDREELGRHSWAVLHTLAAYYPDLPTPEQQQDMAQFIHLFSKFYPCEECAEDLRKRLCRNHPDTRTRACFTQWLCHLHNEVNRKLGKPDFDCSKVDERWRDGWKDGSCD
The target in assay [18] is T4, Polyadenylate-binding protein 1. As to the kind of experiment: PABP inhibition in translation initiation, SAR follow-up (AID 435018). The format is functional.
Assay [19] addresses Intestinal-type alkaline phosphatase (Mus musculus, UniProt P24822). As to the kind of experiment: PubChem AID 488785. The format is functional.
For assay [20], the target named is Intestinal-type alkaline phosphatase (Homo sapiens, UniProt P09923). The experiment in a line: activation of human intestinal alkaline phosphatase – biochemical, dose response (AID 488873). The format is functional.
Intestinal-type alkaline phosphatase (Homo sapiens, UniProt P09923), sequence (P09923 whole entry): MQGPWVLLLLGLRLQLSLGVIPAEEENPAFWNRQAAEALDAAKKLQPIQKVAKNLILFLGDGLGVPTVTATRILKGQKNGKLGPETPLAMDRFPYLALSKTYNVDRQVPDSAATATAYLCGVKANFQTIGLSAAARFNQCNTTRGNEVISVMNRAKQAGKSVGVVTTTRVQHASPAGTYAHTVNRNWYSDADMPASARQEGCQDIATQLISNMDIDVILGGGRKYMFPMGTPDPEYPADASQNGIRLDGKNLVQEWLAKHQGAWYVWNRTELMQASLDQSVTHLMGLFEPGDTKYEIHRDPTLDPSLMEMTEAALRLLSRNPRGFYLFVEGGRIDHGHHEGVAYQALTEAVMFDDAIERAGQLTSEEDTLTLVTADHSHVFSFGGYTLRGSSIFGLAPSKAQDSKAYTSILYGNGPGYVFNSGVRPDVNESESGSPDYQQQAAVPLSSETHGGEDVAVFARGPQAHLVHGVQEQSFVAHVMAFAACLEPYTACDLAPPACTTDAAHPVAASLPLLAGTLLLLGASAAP
Assay [21] is described as follows: IC50 of Artemis nuclease activity blockers – biochemical, fluorescence intensity, dose response (AID 720701).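 Further: Artemis endonuclease enzyme.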 The format is functional.
Assay [22] concerns the target T5, Alkaline phosphatase, tissue-nonspecific isozyme (Homo sapiens, UniProt P05186).
T5 sequence (P05186 whole entry): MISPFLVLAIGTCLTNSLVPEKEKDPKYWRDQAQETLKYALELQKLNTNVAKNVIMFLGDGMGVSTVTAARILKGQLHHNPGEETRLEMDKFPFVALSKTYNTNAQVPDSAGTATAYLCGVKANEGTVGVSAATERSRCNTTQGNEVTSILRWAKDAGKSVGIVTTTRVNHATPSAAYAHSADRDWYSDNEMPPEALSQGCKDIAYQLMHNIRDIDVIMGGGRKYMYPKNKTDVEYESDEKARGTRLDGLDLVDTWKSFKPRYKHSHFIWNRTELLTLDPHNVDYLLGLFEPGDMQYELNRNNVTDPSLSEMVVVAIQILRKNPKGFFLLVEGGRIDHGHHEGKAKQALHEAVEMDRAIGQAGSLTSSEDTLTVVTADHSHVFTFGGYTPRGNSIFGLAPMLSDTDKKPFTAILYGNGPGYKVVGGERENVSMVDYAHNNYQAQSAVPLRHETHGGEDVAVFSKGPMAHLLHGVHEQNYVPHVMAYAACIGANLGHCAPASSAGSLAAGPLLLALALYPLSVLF
As to the kind of experiment: TNAP enzyme inhibition by screening hits, dose response, selectivity assay for mouse IAP inhibitor project, biochemical, human TNAP, uHTS hits (AID 488906). The format is functional.

Calls of active or inactive are those of the source.

What is called CC50 is the concentration giving 50% cytotoxicity. Broadly, the IC50 is the concentration that gives 50% inhibition. For orientation: EC50 means the midpoint of the concentration-response curve. As usually defined, the AC50 is the concentration at which the activity in the assay is half-maximal.

T4 sequence (P11940 whole entry): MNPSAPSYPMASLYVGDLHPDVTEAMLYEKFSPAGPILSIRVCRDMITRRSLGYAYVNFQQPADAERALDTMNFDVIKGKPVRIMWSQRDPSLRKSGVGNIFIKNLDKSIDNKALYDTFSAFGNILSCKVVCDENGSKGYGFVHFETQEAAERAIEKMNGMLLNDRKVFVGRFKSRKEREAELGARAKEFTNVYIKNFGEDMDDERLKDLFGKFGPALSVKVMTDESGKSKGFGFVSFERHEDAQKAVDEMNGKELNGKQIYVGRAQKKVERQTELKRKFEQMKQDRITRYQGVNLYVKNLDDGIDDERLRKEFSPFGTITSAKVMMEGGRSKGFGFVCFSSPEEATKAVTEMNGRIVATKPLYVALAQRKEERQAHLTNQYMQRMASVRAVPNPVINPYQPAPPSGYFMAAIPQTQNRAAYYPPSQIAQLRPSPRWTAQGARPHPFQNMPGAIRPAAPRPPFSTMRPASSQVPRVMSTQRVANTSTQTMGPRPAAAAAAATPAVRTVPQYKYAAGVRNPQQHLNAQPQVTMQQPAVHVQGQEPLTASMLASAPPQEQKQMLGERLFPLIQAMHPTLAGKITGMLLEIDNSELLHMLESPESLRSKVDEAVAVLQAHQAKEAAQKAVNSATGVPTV
Nucleotide-binding oligomerization domain-containing protein 1, sequence (Q9Y239 whole entry, the tested form may be a part): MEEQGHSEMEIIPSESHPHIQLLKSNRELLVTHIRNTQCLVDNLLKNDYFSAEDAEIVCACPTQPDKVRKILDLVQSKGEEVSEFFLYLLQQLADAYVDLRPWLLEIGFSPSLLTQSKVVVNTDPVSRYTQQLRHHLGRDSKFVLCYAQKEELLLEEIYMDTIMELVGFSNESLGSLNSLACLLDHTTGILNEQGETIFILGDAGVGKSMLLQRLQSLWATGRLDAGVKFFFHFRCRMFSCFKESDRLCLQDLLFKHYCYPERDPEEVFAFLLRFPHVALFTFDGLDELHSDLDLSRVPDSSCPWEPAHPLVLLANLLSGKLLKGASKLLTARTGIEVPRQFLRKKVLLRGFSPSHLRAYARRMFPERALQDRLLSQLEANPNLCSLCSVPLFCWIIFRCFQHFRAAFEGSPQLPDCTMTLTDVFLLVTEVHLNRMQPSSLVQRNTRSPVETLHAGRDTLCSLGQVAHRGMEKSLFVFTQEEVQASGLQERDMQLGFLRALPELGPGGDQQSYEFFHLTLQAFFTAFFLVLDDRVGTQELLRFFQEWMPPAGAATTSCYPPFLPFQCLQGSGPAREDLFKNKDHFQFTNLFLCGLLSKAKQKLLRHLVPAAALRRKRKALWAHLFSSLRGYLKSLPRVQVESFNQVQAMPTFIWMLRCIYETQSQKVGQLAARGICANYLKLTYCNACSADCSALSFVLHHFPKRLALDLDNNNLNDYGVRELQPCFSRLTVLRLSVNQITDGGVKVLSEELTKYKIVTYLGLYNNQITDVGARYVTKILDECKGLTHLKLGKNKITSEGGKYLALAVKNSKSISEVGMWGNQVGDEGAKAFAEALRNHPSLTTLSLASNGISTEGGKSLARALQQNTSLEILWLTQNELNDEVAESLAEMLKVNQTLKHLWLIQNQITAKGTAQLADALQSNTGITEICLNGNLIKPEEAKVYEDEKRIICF
Intestinal-type alkaline phosphatase (Mus musculus, UniProt P24822), sequence (P24822 whole entry): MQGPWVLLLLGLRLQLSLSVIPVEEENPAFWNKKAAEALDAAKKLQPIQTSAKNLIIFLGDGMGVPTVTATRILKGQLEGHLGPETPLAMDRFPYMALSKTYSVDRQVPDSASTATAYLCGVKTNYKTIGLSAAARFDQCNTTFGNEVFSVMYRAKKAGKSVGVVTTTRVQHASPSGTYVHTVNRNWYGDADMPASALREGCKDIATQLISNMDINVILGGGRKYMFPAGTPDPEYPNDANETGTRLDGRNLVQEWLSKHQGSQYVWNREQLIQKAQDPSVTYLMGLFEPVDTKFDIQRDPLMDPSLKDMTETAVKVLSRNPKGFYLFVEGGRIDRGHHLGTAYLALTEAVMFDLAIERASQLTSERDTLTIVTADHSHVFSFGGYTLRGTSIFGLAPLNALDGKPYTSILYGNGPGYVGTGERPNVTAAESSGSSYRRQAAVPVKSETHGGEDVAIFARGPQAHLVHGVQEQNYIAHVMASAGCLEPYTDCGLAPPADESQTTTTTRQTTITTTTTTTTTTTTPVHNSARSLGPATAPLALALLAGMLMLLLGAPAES

Regarding `CCCCCn1c(NC(=O)c2ccco2)c(S(=O)(=O)c2ccc(C)cc2)c2nc3ccccc3nc21`, the CC50 in assay [1] is > 40 µM (active). Moreover, the half-maximal inhibitory concentration (IC50) in [2] is 2.74 µM (active); in assay [4], 13.1 µM (active). Moreover, the figures for the half-maximal effective concentration (EC50) in [3], in [5] and in assay [7] were > 380 µM (inconclusive), 3.27 µM (active) and > 60 µM (not active), respectively. Also, the AC50 in [6] is > 380 µM (inactive).
Take `O=C(Nc1sc2c(c1C(=O)O)CCCC2)c1ccc(Cl)cc1`: the IC50 in assay [8] is > 20 µM (inactive); in [9] it was 2.86 µM (active); in assay [11], 13.4 µM (active); in assay [12], > 20 µM (inactive); in [13], > 20 µM (inactive); in [14], 16 µM (inactive). Further, the EC50 in [10] is 6.58 µM (active).
As to `COc1ccc(N2Cc3cccc(C(=O)NC(C)CCc4ccco4)c3C2=O)cc1` (configuration not stated), the IC50 in assay [15] was 10 µM (active); in [16], 5.42 µM (active); in assay [18], > 100 µM (inactive). In addition, the AC50 in assay [17] was 1.06 µM (active).
Take `O=C(O)CC(C(=O)O)N1C(=O)/C(=C/c2ccc(-c3nc4ccccc4s3)o2)SC1=S` (configuration not stated): the IC50 in assay [19] was 13.4 µM (active); in assay [21], > 20 µM (inactive); in [22] it was 24.3 µM (active). In addition, in [20], the EC50 was > 100 µM (inactive).
